From PubChem BioAssay (NCI)
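Five concentrations, 48 hours, 96-well plates. Definition used: TGI = concentration required for complete inhibition of growth.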

What was measured:
Assay in all cases: NCI tumour cell line growth inhibition, 48 h
786-0 renal = tested on: 786-0 renal
A498 renal = tested on: A498 renal
A549 NSCLC = tested on: A549 NSCLC
ACHN renal = tested on: ACHN renal
CAKI-1 renal = tested on: CAKI-1 renal
CCRF-CEM leukemia = tested on: CCRF-CEM leukemia
COLO 205 colon = tested on: COLO 205 colon
DLD-1 colon = tested on: DLD-1 colon
DMS 114 small cell lung = tested on: DMS 114 small cell lung
DMS 273 small cell lung = tested on: DMS 273 small cell lung
EKVX NSCLC = tested on: EKVX NSCLC
HCC-2998 colon = tested on: HCC-2998 colon
HCT-116 colon = tested on: HCT-116 colon
HCT-15 colon = tested on: HCT-15 colon
HL-60(TB) leukemia = tested on: HL-60(TB) leukemia
HOP-18 NSCLC = tested on: HOP-18 NSCLC
HOP-62 NSCLC = tested on: HOP-62 NSCLC
HOP-92 NSCLC = tested on: HOP-92 NSCLC
HT29 colon = tested on: HT29 colon
IGROV1 ovarian = tested on: IGROV1 ovarian
K-562 leukemia = tested on: K-562 leukemia
KM12 colon = tested on: KM12 colon
KM20L2 colon = tested on: KM20L2 colon
LOX IMVI melanoma = tested on: LOX IMVI melanoma
LXFL 529 NSCLC = tested on: LXFL 529 NSCLC
M14 melanoma = tested on: M14 melanoma
M19-MEL melanoma = tested on: M19-MEL melanoma
MALME-3M melanoma = tested on: MALME-3M melanoma
MOLT-4 leukemia = tested on: MOLT-4 leukemia
NCI-H226 lung = tested on: NCI-H226 lung
NCI-H23 lung = tested on: NCI-H23 lung
NCI-H460 lung = tested on: NCI-H460 lung
NCI-H522 lung = tested on: NCI-H522 lung
OVCAR-3 ovarian = tested on: OVCAR-3 ovarian
OVCAR-4 ovarian = tested on: OVCAR-4 ovarian
OVCAR-5 ovarian = tested on: OVCAR-5 ovarian
OVCAR-8 ovarian = tested on: OVCAR-8 ovarian
RXF 393 renal = tested on: RXF 393 renal
SF-268 CNS = tested on: SF-268 CNS
SF-295 CNS = tested on: SF-295 CNS
SF-539 CNS = tested on: SF-539 CNS
SK-MEL-2 melanoma = tested on: SK-MEL-2 melanoma
SK-MEL-28 melanoma = tested on: SK-MEL-28 melanoma
SK-MEL-5 melanoma = tested on: SK-MEL-5 melanoma
SK-OV-3 ovarian = tested on: SK-OV-3 ovarian
SN12C renal = tested on: SN12C renal
SNB-19 CNS = tested on: SNB-19 CNS
SNB-75 CNS = tested on: SNB-75 CNS
SNB-78 CNS = tested on: SNB-78 CNS
SW-620 colon = tested on: SW-620 colon
TK-10 renal = tested on: TK-10 renal
U251 CNS = tested on: U251 CNS
UACC-257 melanoma = tested on: UACC-257 melanoma
UACC-62 melanoma = tested on: UACC-62 melanoma
UO-31 renal = tested on: UO-31 renal
XF 498 CNS = tested on: XF 498 CNS
RPMI-8226 leukemia = tested on: RPMI-8226 leukemia
RXF-631 renal = tested on: RXF-631 renal

In the case of `N[C@H](C(=O)O)[C@H](Cl)CC(=O)O`, the TGI (786-0 renal) is reported as > 100 µM, the TGI (A498 renal) is reported as > 100 µM and the TGI (A549 NSCLC) is reported as > 100 µM. For the same molecule, the TGI (ACHN renal) was > 100 µM, the TGI (CAKI-1 renal) was > 100 µM and the TGI (CCRF-CEM leukemia) was > 100 µM. For the same molecule, the TGI (COLO 205 colon) was > 100 µM, the TGI (DLD-1 colon) was > 100 µM and the TGI (DMS 114 small cell lung) was > 100 µM. For the same molecule, the TGI (DMS 273 small cell lung) was > 100 µM, the TGI (EKVX NSCLC) was > 100 µM and the TGI (HCC-2998 colon) was > 100 µM. The TGI (HCT-116 colon) was > 100 µM, the TGI (HCT-15 colon) was > 100 µM and the TGI (HL-60(TB) leukemia) was > 100 µM. The TGI (HOP-18 NSCLC) was > 100 µM, the TGI (HOP-62 NSCLC) was > 100 µM and the TGI (HOP-92 NSCLC) was > 100 µM. For the same molecule, the TGI (HT29 colon) was > 100 µM, the TGI (IGROV1 ovarian) was > 100 µM and the TGI (K-562 leukemia) was > 100 µM. For the same molecule, the TGI (KM12 colon) was > 100 µM, the TGI (KM20L2 colon) was > 100 µM and the TGI (LOX IMVI melanoma) was > 100 µM. The TGI (LXFL 529 NSCLC) was > 100 µM, the TGI (M14 melanoma) was > 100 µM and the TGI (M19-MEL melanoma) was > 100 µM. For the same molecule, the TGI (MALME-3M melanoma) was > 100 µM, the TGI (MOLT-4 leukemia) was > 100 µM and the TGI (NCI-H226 lung) was > 100 µM. For the same molecule, the TGI (NCI-H23 lung) was > 100 µM, the TGI (NCI-H460 lung) was > 100 µM and the TGI (NCI-H522 lung) was > 100 µM. For the same molecule, the TGI (OVCAR-3 ovarian) was > 100 µM, the TGI (OVCAR-4 ovarian) was > 100 µM and the TGI (OVCAR-5 ovarian) was > 100 µM. For the same molecule, the TGI (OVCAR-8 ovarian) was > 100 µM, the TGI (RXF 393 renal) was > 100 µM and the TGI (SF-268 CNS) was > 100 µM. The TGI (SF-295 CNS) was > 100 µM, the TGI (SF-539 CNS) was > 100 µM and the TGI (SK-MEL-2 melanoma) was > 100 µM. For the same molecule, the TGI (SK-MEL-28 melanoma) was > 100 µM, the TGI (SK-MEL-5 melanoma) was > 100 µM and the TGI (SK-OV-3 ovarian) was > 100 µM. For the same molecule, the TGI (SN12C renal) was > 100 µM, the TGI (SNB-19 CNS) was > 100 µM and the TGI (SNB-75 CNS) was > 100 µM. For the same molecule, the TGI (SNB-78 CNS) was > 100 µM, the TGI (SW-620 colon) was > 100 µM and the TGI (TK-10 renal) was > 100 µM. The TGI (U251 CNS) was > 100 µM, the TGI (UACC-257 melanoma) was > 100 µM and the TGI (UACC-62 melanoma) was > 100 µM. The TGI (UO-31 renal) was > 100 µM and the TGI (XF 498 CNS) was > 100 µM.
`CC1S(=O)(=O)OCCOS1(=O)=O` was tested, and the TGI (786-0 renal) was > 100 µM, the TGI (A498 renal) was > 100 µM and the TGI (A549 NSCLC) was > 100 µM. The TGI (ACHN renal) was > 100 µM, the TGI (CAKI-1 renal) was > 100 µM and the TGI (CCRF-CEM leukemia) was > 100 µM. For the same molecule, the TGI (COLO 205 colon) was > 100 µM, the TGI (DLD-1 colon) was > 100 µM and the TGI (DMS 114 small cell lung) was > 100 µM. The TGI (DMS 273 small cell lung) was > 100 µM, the TGI (EKVX NSCLC) was > 100 µM and the TGI (HCC-2998 colon) was > 100 µM. The TGI (HCT-116 colon) was > 100 µM, the TGI (HCT-15 colon) was > 100 µM and the TGI (HL-60(TB) leukemia) was 87.1 µM. For the same molecule, the TGI (HOP-18 NSCLC) was > 100 µM, the TGI (HOP-62 NSCLC) was > 100 µM and the TGI (HOP-92 NSCLC) was > 100 µM. For the same molecule, the TGI (HT29 colon) was > 100 µM, the TGI (IGROV1 ovarian) was > 100 µM and the TGI (K-562 leukemia) was > 100 µM. The TGI (KM12 colon) was > 100 µM, the TGI (KM20L2 colon) was > 100 µM and the TGI (LOX IMVI melanoma) was > 100 µM. For the same molecule, the TGI (LXFL 529 NSCLC) was > 100 µM, the TGI (M14 melanoma) was > 100 µM and the TGI (M19-MEL melanoma) was > 100 µM. The TGI (MALME-3M melanoma) was > 100 µM, the TGI (MOLT-4 leukemia) was > 100 µM and the TGI (NCI-H226 lung) was > 100 µM. The TGI (NCI-H23 lung) was > 100 µM, the TGI (NCI-H460 lung) was > 100 µM and the TGI (NCI-H522 lung) was > 100 µM. For the same molecule, the TGI (OVCAR-3 ovarian) was > 100 µM, the TGI (OVCAR-4 ovarian) was > 100 µM and the TGI (OVCAR-5 ovarian) was > 100 µM. For the same molecule, the TGI (OVCAR-8 ovarian) was > 100 µM, the TGI (RPMI-8226 leukemia) was > 100 µM and the TGI (RXF 393 renal) was > 100 µM. For the same molecule, the TGI (RXF-631 renal) was > 100 µM, the TGI (SF-268 CNS) was > 100 µM and the TGI (SF-295 CNS) was > 100 µM. For the same molecule, the TGI (SF-539 CNS) was > 100 µM, the TGI (SK-MEL-2 melanoma) was > 100 µM and the TGI (SK-MEL-28 melanoma) was > 100 µM. The TGI (SK-MEL-5 melanoma) was > 100 µM, the TGI (SK-OV-3 ovarian) was > 100 µM and the TGI (SN12C renal) was > 100 µM. For the same molecule, the TGI (SNB-19 CNS) was > 100 µM, the TGI (SNB-75 CNS) was > 100 µM and the TGI (SNB-78 CNS) was > 100 µM. For the same molecule, the TGI (SW-620 colon) was > 100 µM, the TGI (TK-10 renal) was > 100 µM and the TGI (U251 CNS) was > 100 µM. The TGI (UACC-257 melanoma) was > 100 µM, the TGI (UACC-62 melanoma) was > 83.5 µM and the TGI (UO-31 renal) was > 100 µM.
